Experimental data published in patent publication US20240381872A1, “SUBSTITUTED 2,3-DIHYDRO[1,3]THIAZOLO[4,5-B]PYRIDINES, SALTS THEREOF AND THEIR USE AS HERBICIDALLY ACTIVE SUBSTANCES” (BAYER AKTIENGESELLSCHAFT, priority 2021, published 2024).

What was measured:
Format in all cases: in vivo
Setaria viridis (SETVI) = experiment: Herbicidal pre-emergence action, section A (Table A8)
Text: (§1) Seeds of mono- and dicotyledonous weed plants were sown in plastic pots (double sowings with one species of mono- and one species of dicotyledonous weed plants per pot), in sandy loam, and covered with soil. The compounds according to the invention, formulated in the form of wettable powders (WP) or as emulsifiable concentrates (EC), were applied to the surface of the covering soil as aqueous suspension or emulsion, with the addition of 0.5% of an additive, at an application rate of 600 l of water per hectare (converted). Following treatment, the pots were placed in a greenhouse and kept under optimum growth conditions for the test plants. The visual grading of the damage to the test plants was carried out after ca. 3 weeks in comparison to untreated controls (herbicidal effect in percent (%): 100% effect=plants have died off, 0% effect=as control plants).

[1] = test system: Echinochloa crus-galli (ECHCG); experiment: Herbicidal pre-emergence action, section A (Table A3); conditions: application rate 1280 g/ha, visual grading after ca. 3 weeks vs untreated controls; for pest or weed control at 1280 g/ha: Echinochloa crus-galli, pre-emergence, 504 h, read-out: pre-emergence activity against ECHCG in %
Text: as §1

[2] = test system: Amaranthus retroflexus (AMARE); experiment: Herbicidal pre-emergence action, section A (Table A11); conditions: for pest or weed control at 320 g/ha: application rate 320 g/ha
Text: as §1

Poa annua (POAAN) [3] = experiment: Herbicidal pre-emergence action, section A (Table A7); conditions: visual grading after ca. 3 weeks vs untreated controls; for pest or weed control at 320 g/ha: application rate 320 g/ha
Text: as §1

Kochia scoparia (KCHSC) [4] = experiment: Herbicidal post-emergence action, section B (Table B4); conditions: application rate 1280 g/ha, visual rating about 3 weeks after treatment vs untreated controls
Description: (§2) Seeds of mono- and dicotyledonous weed plants were placed in plastic pots in sandy loam soil (doubly sown with in each case one species of mono- or dicotyledonous weed plants per pot), covered with soil and cultivated in a greenhouse under controlled growth conditions. 2 to 3 weeks after sowing, the test plants were treated at the one-leaf stage. The compounds of the invention, formulated in the form of wettable powders (WP) or as emulsion concentrates (EC), were applied onto the green parts of the plants as aqueous suspension or emulsion with addition of 0.5% additive at a water application rate of 600 liters per hectare (converted). After the test plants had been kept in the greenhouse under optimum growth conditions for about 3 weeks, the activity of the preparations was rated visually in comparison to untreated controls. For example, 100% activity=the plants have died, 0% activity=like control plants.

Stellaria media (STEME) [5] = experiment: Herbicidal post-emergence action, section B (Table B9); conditions: application rate 1280 g/ha; visual rating about 3 weeks after treatment vs untreated controls
Description: as §2

Stellaria media (STEME) [6] = experiment: Herbicidal pre-emergence action, section A (Table A9); conditions: for pre-emergence activity against STEME in % / pest or weed control at 1280 g/ha: application rate 1280 g/ha
Text: as §1

Veronica persica (VERPE) [7] = experiment: Herbicidal pre-emergence action, section A (Table A10); conditions: application rate 1280 g/ha; for pest or weed control at 1280 g/ha: Veronica persica, 504 h, read-out: pre-emergence activity against VERPE in %
Text: as §1

[8] = test system: Digitaria sanguinalis (DIGSA); experiment: Herbicidal pre-emergence action, section A (Table A12); conditions: Digitaria sanguinalis, 504 h, application rate 1280 g/ha, read-out: pre-emergence activity against DIGSA in %
Text: as §1

Lolium rigidum (LOLRI) = experiment: Herbicidal pre-emergence action, section A (Table A5); conditions: Lolium rigidum, pre-emergence, 504 h; application rate 1280 g/ha; visual grading after ca. 3 weeks vs untreated controls; read-out: pre-emergence activity against LOLRI in %
Text: as §1

Veronica persica (VERPE) [9] = experiment: Herbicidal post-emergence action, section B (Table B10); conditions: application rate 1280 g/ha, visual rating about 3 weeks after treatment vs untreated controls
Description: as §2

[10] = test system: Amaranthus retroflexus (AMARE); experiment: Herbicidal post-emergence action, section B (Table B11); conditions: application rate 1280 g/ha; visual rating about 3 weeks after treatment vs untreated controls
Description: as §2

[11] = test system: Matricaria inodora (MATIN); experiment: Herbicidal pre-emergence action, section A (Table A6); conditions: Tripleurospermum inodorum, pre-emergence, 504 h; application rate 1280 g/ha; visual grading after ca. 3 weeks vs untreated controls; read-out: pre-emergence activity against MATIN in %
Text: as §1

Kochia scoparia (KCHSC) [12] = experiment: Herbicidal pre-emergence action, section A (Table A4); conditions: Bassia scoparia, pre-emergence, 504 h; application rate 1280 g/ha; visual grading after ca. 3 weeks vs untreated controls; read-out: pre-emergence activity against KCHSC in %
Text: as §1

Poa annua (POAAN) [13] = experiment: Herbicidal post-emergence action, section B (Table B7); conditions: Poa annua, post-emergence, 504 h; application rate 1280 g/ha; visual rating about 3 weeks after treatment vs untreated controls; read-out: post-emergence activity against POAAN in %
Description: as §2

[14] = Stellaria media, 504 h, read-out: pre-emergence activity against STEME in %
[15] = Amaranthus retroflexus, 504 h, read-out: pre-emergence activity against AMARE in %
[16] = Poa annua, pre-emergence, 504 h, read-out: pre-emergence activity against POAAN in %
[17] = Setaria viridis, 504 h, application rate 1280 g/ha, read-out: pre-emergence activity against SETVI in %

## Fc1c(Cl)cccc1-c1nc2c(cc1Br)SCN2 [Example I-103]
Setaria viridis (SETVI); application rate 1280 g/ha
  pre-emergence activity against SETVI in %: 100%
[1]
  pre-emergence activity against ECHCG in %: 90%
[2]; application rate 1280 g/ha
  pre-emergence activity against AMARE in %: 90%
Poa annua (POAAN) [3]; application rate 1280 g/ha
  pre-emergence activity against POAAN in %: 100%
Kochia scoparia (KCHSC) [4]
  post-emergence activity against KCHSC in %: 90%
Stellaria media (STEME) [5]
  post-emergence activity against STEME in %: 90%

## Cc1cc2c(nc1-c1cccc(Cl)c1F)N(S(C)(=O)=O)CS2 [Example I-111]
Stellaria media (STEME) [6]
  pre-emergence activity against STEME in %: 90%
[1]
  pre-emergence activity against ECHCG in %: 100%
Kochia scoparia (KCHSC) [4]
  post-emergence activity against KCHSC in %: 90%

## Cc1ccccc1-c1nc2c(cc1C)[S+]([O-])CN2C(=O)C1CC1 (centres unmarked) [Example I-063]
Stellaria media (STEME) [6]; [14]
  pest or weed control at 1280 g/ha: 90%
Setaria viridis (SETVI); Setaria viridis, 504 h, application rate 320 g/ha, read-out: pre-emergence activity against SETVI in %
  pest or weed control at 320 g/ha: 100%
[1]
  pest or weed control at 1280 g/ha: 100%
[2]; [15]
  pest or weed control at 320 g/ha: 90%
Veronica persica (VERPE) [7]
  pest or weed control at 1280 g/ha: 90%
[8]
  pest or weed control at 1280 g/ha: 100%
Lolium rigidum (LOLRI)
  pest or weed control at 1280 g/ha: 100%
Poa annua (POAAN) [3]; [16]
  pest or weed control at 320 g/ha: 100%
Veronica persica (VERPE) [9]; Veronica persica, post-emergence, 504 h, read-out: post-emergence activity against VERPE in %
  pest or weed control at 1280 g/ha: 90%
Kochia scoparia (KCHSC) [4]; Bassia scoparia, post-emergence, 504 h, read-out: post-emergence activity against KCHSC in %
  pest or weed control at 1280 g/ha: 90%

## Cc1cccc(-c2nc3c(cc2Br)SCN3B(N)N)c1C [Example I-105]
[10]
  post-emergence activity against AMARE in %: 90%

## CCC(=O)N1C[S+]([O-])c2cc(C)c(-c3cc(F)ccc3F)nc21 (centres unmarked) [Example I-167]
[11]
  pest or weed control at 1280 g/ha: 90%
Stellaria media (STEME) [6]; Stellaria media, 504 h, application rate 320 g/ha, read-out: pre-emergence activity against STEME in %
  pest or weed control at 320 g/ha: 90%
Setaria viridis (SETVI); [17]
  pest or weed control at 1280 g/ha: 90%
[1]
  pest or weed control at 1280 g/ha: 100%
[2]; [15]
  pest or weed control at 320 g/ha: 90%
Veronica persica (VERPE) [7]
  pest or weed control at 1280 g/ha: 90%
[8]
  pest or weed control at 1280 g/ha: 100%
Lolium rigidum (LOLRI)
  pest or weed control at 1280 g/ha: 100%
Poa annua (POAAN) [3]; [16]
  pest or weed control at 320 g/ha: 100%

## Cc1cccc(-c2nc3c(cc2Br)SCN3C(=O)C2(C)CC(Cl)=NO2)c1C (centres unmarked) [Example I-140]
Stellaria media (STEME) [6]
  pre-emergence activity against STEME in %: 90%
[2]; application rate 1280 g/ha
  pre-emergence activity against AMARE in %: 90%
Poa annua (POAAN) [3]; application rate 1280 g/ha
  pre-emergence activity against POAAN in %: 100%

## N#CCS(=O)(=O)N1CSc2cc(Br)c(-c3cccc(Cl)c3F)nc21 [Example I-131]
Stellaria media (STEME) [6]
  pre-emergence activity against STEME in %: 90%
[10]
  post-emergence activity against AMARE in %: 90%
[2]; application rate 1280 g/ha
  pre-emergence activity against AMARE in %: 90%
Veronica persica (VERPE) [9]
  post-emergence activity against VERPE in %: 90%

## CCS(=O)(=O)N1C[S+]([O-])c2cc(Br)c(-c3ccccc3Cl)nc21 (centres unmarked) [Example I-134]
Stellaria media (STEME) [6]; [14]
  pest or weed control at 1280 g/ha: 90%
Setaria viridis (SETVI); [17]
  pest or weed control at 1280 g/ha: 100%
[1]
  pest or weed control at 1280 g/ha: 100%
[2]; Amaranthus retroflexus, 504 h, application rate 1280 g/ha, read-out: pre-emergence activity against AMARE in %
  pest or weed control at 1280 g/ha: 90%
[8]
  pest or weed control at 1280 g/ha: 100%
Kochia scoparia (KCHSC) [12]
  pest or weed control at 1280 g/ha: 90%
Poa annua (POAAN) [3]; Poa annua, pre-emergence, 504 h, application rate 1280 g/ha, read-out: pre-emergence activity against POAAN in %
  pest or weed control at 1280 g/ha: 100%
Poa annua (POAAN) [13]
  pest or weed control at 1280 g/ha: 90%

## CCS(=O)(=O)N1CSc2cc(Br)c(-c3cccc(Cl)c3F)nc21 [Example I-132]
[10]
  post-emergence activity against AMARE in %: 90%
Veronica persica (VERPE) [7]
  pre-emergence activity against VERPE in %: 90%
Veronica persica (VERPE) [9]
  post-emergence activity against VERPE in %: 90%
